Values joined by “and” are separate entries in the source; they are usually repeats but may differ in a detail not shown here. Identical values can stand only once. Toxic doses and inconclusive results are not listed.
Test system: P388 leukemia ip, CD2F1 mice, survival T/C
Assay: NCI In Vivo Anticancer Drug Screen. Data for tumor model P388 Leukemia (intraperitoneal) in CD2F1 (CDF1) mice
Details: endpoint: median survival time, higher = longer survival
Procedure, shortened: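 Mice carrying the transplanted tumor received test compound or vehicle. Survival was recorded in each group, and the value is the treated-group measurement divided by that of the vehicle-treated control group.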

[1] = dose: 50.0 mg/kg/injection, schedule: Q01DX009 (ip), vehicle: saline with Tween-80
[2] = dose: 100.0 mg/kg/injection, schedule: Q01DX009 (ip), vehicle: saline with Tween-80
[3] = dose: 200.0 mg/kg/injection, schedule: Q01DX009 (ip), vehicle: saline with Tween-80
[4] = dose: 60.0 mg/kg/injection, schedule: Q01DX005 (ip), vehicle: saline with Tween-80
[5] = dose: 120.0 mg/kg/injection, schedule: Q01DX005 (ip), vehicle: saline with Tween-80
[6] = dose: 240.0 mg/kg/injection, schedule: Q01DX005 (ip), vehicle: saline with Tween-80
[7] = dose: 50.0 mg/kg/injection, schedule: Q01DX005 (ip), vehicle: Klucel (hydroxypropylcellulose) (HPC)
[8] = dose: 100.0 mg/kg/injection, schedule: Q01DX005 (ip), vehicle: Klucel (hydroxypropylcellulose) (HPC)
[9] = dose: 200.0 mg/kg/injection, schedule: Q01DX005 (ip), vehicle: Klucel (hydroxypropylcellulose) (HPC)
[10] = dose: 50.0 mg/kg/injection, schedule: Q01DX005 (ip), vehicle: saline with Tween-80
[11] = dose: 100.0 mg/kg/injection, schedule: Q01DX005 (ip), vehicle: saline with Tween-80
[12] = dose: 200.0 mg/kg/injection, schedule: Q01DX005 (ip), vehicle: saline with Tween-80

CCOC(=O)C(N)CSC(=O)NC (stereo unspecified)
T/C (dose: 10.4 mg/kg/injection, schedule: Q03HX024 (ip), vehicle: saline): 118 % of control | T/C (dose: 20.8 mg/kg/injection, schedule: Q03HX024 (ip), vehicle: saline): 124 % of control | T/C (dose: 25.0 mg/kg/injection, schedule: Q01DX005 (ip), vehicle: saline): 108 % of control | T/C (dose: 27.7 mg/kg/injection, schedule: Q01DX009 (ip), vehicle: saline): 119 % of control | T/C (dose: 27.7 mg/kg/injection, schedule: Q01DX009 (oral), vehicle: saline): 109 % of control | T/C (dose: 31.2 mg/kg/injection, schedule: Q03HX008 (ip), vehicle: saline): 111 % of control | T/C (dose: 50.0 mg/kg/injection, schedule: Q01DX005 (ip), vehicle: saline): 112 % of control and 114 % of control (2×) | T/C (dose: 50.0 mg/kg/injection, schedule: Q01DX005 (iv), vehicle: saline): 101 % of control | T/C (dose: 55.5 mg/kg/injection, schedule: Q01DX009 (oral), vehicle: saline): 111 % of control | T/C (dose: 62.5 mg/kg/injection, schedule: Q03HX008 (ip), vehicle: saline): 120 % of control | T/C (dose: 83.3 mg/kg/injection, schedule: Q03HX024 (ip), vehicle: saline): 162 % of control | T/C (dose: 83.3 mg/kg/injection, schedule: Q04DX003 (ip), vehicle: saline): 113 % of control | T/C (dose: 100.0 mg/kg/injection, schedule: Q01DX005 (iv), vehicle: saline): 106 % of control | T/C (dose: 111.1 mg/kg/injection, schedule: Q01DX009 (oral), vehicle: saline): 120 % of control | T/C (dose: 133.0 mg/kg/injection, schedule: Q01DX009 (ip), vehicle: saline): 152 % of control | T/C (dose: 166.6 mg/kg/injection, schedule: Q03HX024 (ip), vehicle: saline): 187 % of control | T/C (dose: 166.6 mg/kg/injection, schedule: Q04DX003 (ip), vehicle: saline): 120 % of control | T/C (dose: 200.0 mg/kg/injection, schedule: Q01DX005 (iv), vehicle: saline): 118 % of control | T/C (dose: 200.0 mg/kg/injection, schedule: Q01DX009 (ip), vehicle: saline): 154 % of control | T/C (dose: 222.2 mg/kg/injection, schedule: Q01DX009 (ip), vehicle: saline): 156 % of control | T/C (dose: 250.0 mg/kg/injection, schedule: Q01DX001 (ip), vehicle: saline): 114 % of control | T/C (dose: 250.0 mg/kg/injection, schedule: Q01DX001 (iv), vehicle: saline): 92 % of control | T/C (dose: 300.0 mg/kg/injection, schedule: Q01DX009 (ip), vehicle: saline): 170 % of control | T/C (dose: 444.4 mg/kg/injection, schedule: Q01DX009 (ip), vehicle: saline): 169 % of control | T/C (dose: 444.4 mg/kg/injection, schedule: Q01DX009 (oral), vehicle: saline): 155 % of control | T/C (dose: 500.0 mg/kg/injection, schedule: Q01DX001 (ip), vehicle: saline): 117 % of control | T/C (dose: 500.0 mg/kg/injection, schedule: Q01DX001 (iv), vehicle: saline): 102 % of control | T/C (dose: 666.6 mg/kg/injection, schedule: Q04DX003 (ip), vehicle: saline): 153 % of control | T/C (dose: 888.8 mg/kg/injection, schedule: Q01DX009 (oral), vehicle: saline): 195 % of control | T/C (dose: 1000.0 mg/kg/injection, schedule: Q01DX001 (ip), vehicle: saline): 119 % of control

N=C(N)c1ccc(N=C(N)Nc2ccc(C(=N)N)cc2)cc1
T/C (dose: 6.25 mg/kg/injection, schedule: Q01DX009 (ip), vehicle: saline): 95 % of control | T/C (dose: 12.5 mg/kg/injection, schedule: Q01DX009 (ip), vehicle: saline): 95 % of control | T/C (dose: 25.0 mg/kg/injection, schedule: Q01DX009 (ip), vehicle: saline): 95 % of control

CN1C(=O)N/C(=C2/CCOC2=O)C1=O
T/C [1]: 106 % of control | T/C [2]: 88 % of control | T/C [3]: 98 % of control

CCCCCCOCC(=O)OC
T/C [1]: 103 % of control | T/C [2]: 102 % of control | T/C [3]: 102 % of control

c1ccc(Cc2nnc3n2CCC(c2ccccc2)S3)cc1 (stereo unspecified)
T/C [4]: 102 % of control | T/C [5]: 99 % of control | T/C [6]: 95 % of control

CCOC(=O)C1C[S][Sn]2([NH]1)[NH]C(C(=O)OCC)C[S]2 (stereo unspecified)
T/C [7]: 99 % of control | T/C [8]: 106 % of control | T/C [9]: 101 % of control

CCCCCCCCCCCCCCCC(=O)NCCN(CC)CC
T/C (dose: 12.5 mg/kg/injection, schedule: Q01DX009 (ip), vehicle: saline with Tween-80): 105 % of control | T/C (dose: 25.0 mg/kg/injection, schedule: Q01DX009 (ip), vehicle: saline with Tween-80): 100 % of control

O=C(/C=C/c1cccc([N+](=O)[O-])c1)Nc1cccc(S(=O)(=O)F)c1
T/C [4]: 102 % of control | T/C [5]: 93 % of control | T/C [6]: 91 % of control

CC1(C)CC2(OC2c2ccc([N+](=O)[O-])cc2)C(=O)c2ccccc21 (stereo unspecified)
T/C (dose: 0.78 mg/kg/injection, schedule: Q01DX009 (ip), vehicle: Klucel (hydroxypropylcellulose) (HPC)): 87 % of control | T/C (dose: 1.56 mg/kg/injection, schedule: Q01DX009 (ip), vehicle: Klucel (hydroxypropylcellulose) (HPC)): 88 % of control | T/C (dose: 3.13 mg/kg/injection, schedule: Q01DX009 (ip), vehicle: Klucel (hydroxypropylcellulose) (HPC)): 90 % of control | T/C [1]: 100 % of control | T/C [2]: 90 % of control | T/C [3]: 95 % of control | T/C (dose: 400.0 mg/kg/injection, schedule: Q01DX009 (ip), vehicle: Klucel (hydroxypropylcellulose) (HPC)): 93 % of control

CN(C)c1nnn(Cc2ccccc2)n1
T/C [7]: 101 % of control | T/C [8]: 97 % of control | T/C [9]: 104 % of control

COc1cccc(OC)c1[N+](=O)[O-]
T/C [1]: 87 % of control | T/C [2]: 97 % of control | T/C [3]: 106 % of control

Cc1ccc(O)c(N=Nc2c(O)cc(S(=O)(=O)O)c3ccccc23)c1
T/C (dose: 50.0 mg/kg/injection, schedule: Q01DX009 (ip), vehicle: suspension in saline): 100 % of control | T/C (dose: 100.0 mg/kg/injection, schedule: Q01DX009 (ip), vehicle: suspension in saline): 95 % of control

CN(C)CCNc1ccc(CO)c2sc3ccc(O)cc3c(=O)c12
T/C (dose: 25.0 mg/kg/injection, schedule: Q01DX005 (ip), vehicle: saline with Tween-80): 160 % of control and 162 % of control | T/C [10]: 173 % of control and 175 % of control | T/C [11]: 190 % of control and 194 % of control | T/C [12]: 222 % of control

CCOC(=O)Nc1nc2ccccc2n1CN1CCN(C)CC1
T/C (dose: 25.0 mg/kg/injection, schedule: Q01DX005 (ip), vehicle: Klucel (hydroxypropylcellulose) (HPC)): 99 % of control | T/C [7]: 102 % of control and 97 % of control | T/C [8]: 100 % of control and 107 % of control | T/C [9]: 113 % of control and 120 % of control

CCN(CC)C/C(C)=C(/c1ccccc1)c1ccccc1S(N)(=O)=O
T/C (dose: 100.0 mg/kg/injection, schedule: Q01DX001 (ip), vehicle: Klucel (hydroxypropylcellulose) (HPC)): 116 % of control | T/C (dose: 200.0 mg/kg/injection, schedule: Q01DX001 (ip), vehicle: Klucel (hydroxypropylcellulose) (HPC)): 111 % of control

COC(=O)c1cn(C)c(-c2ccccc2)c1C(=O)OC
T/C [7]: 100 % of control | T/C [8]: 100 % of control | T/C [9]: 97 % of control

O=C(Nc1cccc(Cl)c1)OCC(COC(=O)Nc1cccc(Cl)c1)(COC(=O)Nc1cccc(Cl)c1)[N+](=O)[O-]
T/C [10]: 95 % of control | T/C [11]: 98 % of control | T/C [12]: 100 % of control

CCCN1CCc2cc3c(cc2C1)OCO3
T/C (dose: 60.0 mg/kg/injection, schedule: Q01DX005 (ip), vehicle: saline): 93 % of control | T/C (dose: 120.0 mg/kg/injection, schedule: Q01DX005 (ip), vehicle: saline): 91 % of control

COC(=O)C(CCCN=C(N)N[N+](=O)[O-])NC(=O)c1ccc2c(c1O)C(=O)c1ccccc1C2=O (stereo unspecified)
T/C (dose: 100.0 mg/kg/injection, schedule: Q04DX002 (ip), vehicle: saline with Tween-80): 96 % of control | T/C (dose: 200.0 mg/kg/injection, schedule: Q04DX002 (ip), vehicle: saline with Tween-80): 92 % of control | T/C (dose: 400.0 mg/kg/injection, schedule: Q04DX002 (ip), vehicle: saline with Tween-80): 92 % of control

CCCCNC(C)(C)C(SS)c1ccc(C(F)(F)F)cc1 (stereo unspecified)
T/C (dose: 50.0 mg/kg/injection, schedule: Q04DX003 (ip), vehicle: other): 100 % of control | T/C (dose: 100.0 mg/kg/injection, schedule: Q04DX003 (ip), vehicle: other): 104 % of control

OC1OC(Cn2c3ccccc3c3ccccc32)C(O)C(O)C1O (stereo unspecified)
T/C (dose: 50.0 mg/kg/injection, schedule: Q01DX001 (ip), vehicle: saline with Tween-80): 100 % of control | T/C (dose: 100.0 mg/kg/injection, schedule: Q01DX001 (ip), vehicle: saline with Tween-80): 107 % of control | T/C (dose: 200.0 mg/kg/injection, schedule: Q01DX001 (ip), vehicle: saline with Tween-80): 114 % of control

— PubChem BioAssay AID330 (DTP/NCI, 2004)
